Read-outs that look alike come from different tables or passages of the source. Each block holds one molecule with its values, some of them ahead of it.
How the values were obtained:
U2OS cell line = test: MTT cell proliferation assay, U2OS; assay type: cell-based; conditions: Homo sapiens, incubation approximately 64-72 hours
Method: (§1) The MTT cell proliferation assay was used to study the cytotoxic properties of the compounds. The assay was performed according to the method described by Roche Molecular Biochemicals, with minor modifications. The assay is based on the cleavage of the tetrazolium salt, MTT, in the presence of an electron-coupling reagent. The water-insoluble formazan salt produced must be solubilized in an additional step. Cells grown in a 96-well tissue culture plate were incubated with the MTT solution for approximately 4 hours. After this incubation period, a water-insoluble formazan dye formed. After solubilization, the formazan dye was quantitated using a scanning multi-well spectrophotometer (ELISA reader). […] The cells were seeded at 5,000-10,000 cells in each well of 96-well plate in 100 μL of fresh culture medium and were allowed to attach overnight. The stock solutions of the compounds were diluted in 100 μL cell culture medium to obtain eight concentrations of each test compound, ranging from 1 nM to 30 μM. […] All optical densities were measured at 490 nm using a Vmax Kinetic Microplate Reader (Molecular Devices). In most cases, the assay was performed in duplicate and the results were presented as a mean percent inhibition to the negative control±SE. The following formula was used to calculate the percent of inhibition: Inhibition (%)=(1-(ODo/OD)) ×100. […]

Colo-205 cell line = test: MTT cell proliferation assay, Colo-205; assay type: cell-based; conditions: Homo sapiens, incubation approximately 64-72 hours
Method: as §1

HCT-15 cell line = test: MTT cell proliferation assay, HCT-15; assay type: cell-based; conditions: Homo sapiens, incubation approximately 64-72 hours
Method: as §1

[1] = system: PAK4 interactors and downstream proteins; test: Immunoblots of PAK4 interactors and downstream proteins in U2OS cells; assay type: cell-based, human; conditions: 0.5 μM or 5 μM, 72 hours
Method: Immunoblots were used to measure the effects of exemplary compounds on protein steady-state levels and phophorylation of PAK4 interactor and downstream proteins. Specifically, U2OS (osteosarcoma) cells were split and plated on day 1. After overnight attachment to the tissue culture plate, cells were treated with either DMSO (0), 37 nM, 111 nM, 333 nM, 1 μM, or 3 μM Compound 246 for 72 hours. Cells were collected, washed and lysed in RIPA buffer. After obtaining the protein concentration by BCA assay, lysates were boiled in loading buffer and run on SDS-PAGE. The gels were transferred to nitrocellulose membranes and blotted with antibodies raised against phosphor-PAK4, PAK4, phophos-beta-catenin, beta-catenin, GEF-H1, phospho-Akt, Akt, phospho-ERK1/2, ERK1/2, phospho-cofilin, cofilin, phospho-histone H3, histone H3, cyclin D1, Mcl-1, Bcl-2, p21, survivin, caspase 8, caspase 3, PARP, and beta-actin (loading control).
In another experiment, U2OS (osteosarcoma) cells were split and plated on day 1. After overnight attachment to the tissue culture plate, cells were treated with DMSO (Ct), 0.5 μM, or 5 μM of Compound 124, 369, 226, 246, or 907 for 72 hours. Cells were collected, washed and lysed in RIPA buffer. After obtaining the protein concentration by BCA assay, lysates were boiled in loading buffer and run on SDS-PAGE. The gels were transferred to nitrocellulose membranes and blotted with antibodies raised against phophos-beta-catenin, cyclin D1, PAK4, phospho-cofilin, and beta-actin (loading control).

DLD-1 cell line = test: MTT cell proliferation assay, DLD-1; assay type: cell-based; conditions: Homo sapiens, incubation approximately 64-72 hours
Method: as §1

MRC-5 cell line = test: MTT cell proliferation assay, MRC-5; assay type: cell-based; conditions: Homo sapiens, MRC5, incubation approximately 64-72 hours
Method: as §1

MM1S cell line = test: MTT cell proliferation assay, MM1S; assay type: cell-based; conditions: Homo sapiens, MM1.S, incubation approximately 64-72 hours
Method: (§2) The MTT cell proliferation assay was used to study the cytotoxic properties of the compounds. The assay was performed according to the method described by Roche Molecular Biochemicals, with minor modifications. The assay is based on the cleavage of the tetrazolium salt, MTT, in the presence of an electron-coupling reagent. The water-insoluble formazan salt produced must be solubilized in an additional step. Cells grown in a 96-well tissue culture plate were incubated with the MTT solution for approximately 4 hours. After this incubation period, a water-insoluble formazan dye formed. After solubilization, the formazan dye was quantitated using a scanning multi-well spectrophotometer (ELISA reader). […] The cells were seeded at 5,000-10,000 cells in each well of 96-well plate in 100 μL of fresh culture medium and were allowed to attach overnight. The stock solutions of the compounds were diluted in 100 μL cell culture medium to obtain eight concentrations of each test compound, ranging from 1 nM to 30 μM. […] All optical densities were measured at 490 nm using a Vmax Kinetic Microplate Reader (Molecular Devices). In most cases, the assay was performed in duplicate and the results were presented as a mean percent inhibition to the negative control±SE. The following formula was used to calculate the percent of inhibition: Inhibition (%)=(1-(ODo/OD)) ×100.
(§3) The M24 cell line is derived from human melanoma cells. The U2OS cell line is a human osteosarcoma cell line expressing wild type p53 and Rb, but lacking p16. The MM1S cell line is a multiple myeloma cell line; the parent cell line, MM.1, was established from peripheral blood of a multiple myeloma patient who had become resistant to steroid-based therapy. The RPMI8226 cell line is derived from human B lymphocyte cells. NHDF cells are normal human dermal fibroblast cells. The MRC-5 cell line is derived from normal lung tissue of a fetus. The LN18 cell line is a human malignant glioma cell line. The DU-145 cell line is a human prostate cancer cell line. A549 cells are human adenocarcinomic human alveolar basal epithelial cells. […]

Z138 cells = test: MTT cell proliferation assay, Z138; assay type: cell-based; conditions: Homo sapiens, Z-138, Z138 cells, read-out: MTT Assay IC50, Z138
Procedure, shortened: (§4)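 Absorbance at 490 nm of solubilized formazan, produced during roughly 4 h MTT incubation, gave percent inhibition relative to negative control. Compounds spanned eight concentrations between 1 nM and 30 μM on cells plated overnight at 5,000-10,000 per well.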

LoVo cell line = test: MTT cell proliferation assay, LoVo; assay type: cell-based; conditions: Homo sapiens, incubation approximately 64-72 hours
Method: as §1

RPMI8226 cell line = test: MTT cell proliferation assay, RPMI8226; assay type: cell-based; conditions: Homo sapiens, RPMI-8226, incubation approximately 64-72 hours
Method: as §1

M24 cell line = test: MTT cell proliferation assay, M24; assay type: cell-based; conditions: Homo sapiens, incubation approximately 64-72 hours
Method: as §1

DU-145 cell line = test: MTT cell proliferation assay, DU-145; assay type: cell-based; conditions: Homo sapiens, incubation approximately 64-72 hours
Method: as §1

MDA-MB-231 cell line = test: MTT cell proliferation assay, MDA-MB-231; assay type: cell-based; conditions: Homo sapiens, incubation approximately 64-72 hours
Method: as §1

Hep G2 cells = test: MTT cell proliferation assay, Hep G2; assay type: cell-based; conditions: Homo sapiens, HepG2, incubation approximately 64-72 hours
Method: as §2
The M24 cell line is derived from human melanoma cells. The U2OS cell line is a human osteosarcoma cell line expressing wild type p53 and Rb, but lacking p16. The MM1S cell line is a multiple myeloma cell line; the parent cell line, MM.1, was established from peripheral blood of a multiple myeloma patient who had become resistant to steroid-based therapy. The RPMI8226 cell line is derived from human B lymphocyte cells. NHDF cells are normal human dermal fibroblast cells. The MRC-5 cell line is derived from normal lung tissue of a fetus. The LN18 cell line is a human malignant glioma cell line. The DU-145 cell line is a human prostate cancer cell line. A549 cells are human adenocarcinomic human alveolar basal epithelial cells. The MOLT4 cell line is a human acute lymphoblastic leukemia cell line. The THP1 cell line is a human leukemic monocytic cell line derived from peripheral blood. The OCIAML5 cell line is a human acute myeloid leukemia cell line. The MDA-MB-231 cell line is a human breast adenocarcinoma cell line. The MDA-MB-468 cell line is a human breast carcinoma cell line. HL-60 cells are human promyelocytic leukemia cells. Hep G2 cells are human hepatocellular carcinoma cells. HEP 3B cells are human hepatocellular carcinoma cells. The DLD-1 cell line is a colorectal adenocarcinoma cell line. The HCT-15 cell line is a human colon carcinoma cell line. The Colo-205 cell line is derived from a human adenocarcinoma of the colon. […]

3T3 cells = test: MTT cell proliferation assay, 3T3; assay type: cell-based, mouse; conditions: Mus musculus, NIH3T3, 3T3 cells, read-out: MTT Assay IC50, 3T3
Procedure, shortened: as §4

MDA-MB-468 cell line = test: MTT cell proliferation assay, MDA-MB-468; assay type: cell-based; conditions: Homo sapiens, incubation approximately 64-72 hours
Method: as §1

HEP 3B cells = test: MTT cell proliferation assay, HEP 3B; assay type: cell-based; conditions: Homo sapiens, Hep3B, incubation approximately 64-72 hours
Method: as §2, §3

MS751 cells = test: MTT cell proliferation assay, MS751; assay type: cell-based, human; conditions: Homo sapiens, MS751, MS751 cells, read-out: MTT Assay IC50, MS751
Procedure, shortened: as §4

NHDF cells = test: MTT cell proliferation assay, NHDF; assay type: cell-based; conditions: Homo sapiens, incubation approximately 64-72 hours
Method: as §1

SNU-182 cell line = test: MTT cell proliferation assay, SNU-182; assay type: cell-based; conditions: Homo sapiens, incubation approximately 64-72 hours
Method: as §1

UCH-2 cell line = test: MTT cell proliferation assay, UCH-2; assay type: cell-based; conditions: UCH2, incubation approximately 64-72 hours
Method: as §1

L3.6pl cell line = test: MTT cell proliferation assay, L3.6pl; assay type: cell-based; conditions: Homo sapiens, incubation approximately 64-72 hours
Method: as §1

LN18 cell line = test: MTT cell proliferation assay, LN18; assay type: cell-based; conditions: Homo sapiens, LN-18, incubation approximately 64-72 hours
Method: as §1

MOLT4 cell line = test: MTT cell proliferation assay, MOLT4; assay type: cell-based; conditions: Homo sapiens, MOLT-4, incubation approximately 64-72 hours
Method: as §1

Daudi cell line = test: MTT cell proliferation assay, Daudi; assay type: cell-based; conditions: Homo sapiens, incubation approximately 64-72 hours
Method: as §1

THP1 cell line = test: MTT cell proliferation assay, THP1; assay type: cell-based; conditions: Homo sapiens, THP-1, incubation approximately 64-72 hours
Method: as §1

OCIAML5 cell line = test: MTT cell proliferation assay, OCIAML5; assay type: cell-based; conditions: Homo sapiens, OCI-AML-5, incubation approximately 64-72 hours
Method: as §1

A549 cells = test: MTT cell proliferation assay, A549; assay type: cell-based; conditions: Homo sapiens, incubation approximately 64-72 hours
Method: as §1

HL-60 cells = test: MTT cell proliferation assay, HL-60; assay type: cell-based; conditions: Homo sapiens, incubation approximately 64-72 hours
Method: as §1

[2] = eight concentrations 1 nM to 30 μM, incubation approximately 64-72 hours
[3] = approximately 64-72 hours incubation

IC50 (U2OS cell line): < 100 nM
IC50 (Colo-205 cell line): 100 to 5000 nM
IC50 (HCT-15 cell line): 100 to 5000 nM
IC50 (DLD-1 cell line): 100 to 5000 nM
IC50 (MM1S cell line): < 100 nM
IC50 (LoVo cell line): 100 to 5000 nM
IC50 (RPMI8226 cell line): 100 to 5000 nM
IC50 (DU-145 cell line): 100 to 5000 nM
IC50 (MDA-MB-231 cell line): 100 to 5000 nM
IC50 (MDA-MB-468 cell line): 100 to 5000 nM
SMILES: CC(O)c1ccc(-c2cc(Cl)c3c(c2)CC(CNC(=O)/C=C/c2cccnc2)O3)s1 (centres unmarked) [Compound 124]
PAK4 total protein [1]: decrease
phosphorylation of PAK4 signaling proteins beta-catenin and cofilin [1]: decreases in phosphorylation
IC50 (MRC-5 cell line): < 100 nM
IC50 (Z138 cells; [2]): < 100 nM
IC50 (M24 cell line): 100 to 5000 nM
IC50 (Hep G2 cells): 100 to 5000 nM
IC50 (3T3 cells; [2]): 100 to 5000 nM
IC50 (HEP 3B cells): 100 to 5000 nM
IC50 (MS751 cells; [2]): < 100 nM
IC50 (NHDF cells): 100 to 5000 nM

IC50 (SNU-182 cell line): < 100 nM
SMILES: Nc1ccc(/C=C/C(=O)NCC2Cc3cc(-c4ccc(C(=O)N5CC(F)(F)C5)cc4)cc(Cl)c3O2)cn1 (centres unmarked) [Compound 226, (E)-3-(6-aminopyridin-3-yl)-N-((7-chloro-5-(4-(3,3-difluoroazetidine-1-carbonyl)phenyl)-2,3-dihydrobenzofuran-2-yl)methyl)acrylamide]
PAK4 total protein [1]: decrease
phosphorylation of PAK4 signaling proteins beta-catenin and cofilin [1]: decreases in phosphorylation
IC50 (Z138 cells; [3]): < 100 nM
IC50 (Hep G2 cells): < 100 nM
IC50 (3T3 cells; [3]): 5000 to 30000 nM
IC50 (HEP 3B cells): < 100 nM
IC50 (MS751 cells; [3]): < 100 nM
IC50 (UCH-2 cell line): > 30000 nM

IC50 (MOLT4 cell line): < 100 nM
IC50 (Daudi cell line): < 100 nM
IC50 (HCT-15 cell line): < 100 nM
IC50 (THP1 cell line): 100 to 5000 nM
IC50 (MM1S cell line): < 100 nM
IC50 (A549 cells): 100 to 5000 nM
IC50 (MDA-MB-231 cell line): 100 to 5000 nM
IC50 (HL-60 cells): 100 to 5000 nM
SMILES: Nc1ccc(/C=C/C(=O)NCC2Cc3cc(-c4ccc(C(=O)N5CCOCC5)cc4)cc(Cl)c3O2)cn1 (centres unmarked) [Compound 302, (E)-3-(6-Aminopyridin-3-yl)-N-((7-chloro-5-(4-(morpholine-4-carbonyl)phenyl)-2,3-dihydrobenzofuran-2-yl)methyl)acrylamide]
IC50 (L3.6pl cell line): 100 to 5000 nM
IC50 (LN18 cell line): 100 to 5000 nM
IC50 (Z138 cells; [3]): < 100 nM
IC50 (OCIAML5 cell line): < 100 nM
IC50 (Hep G2 cells): < 100 nM
IC50 (3T3 cells; [3]): 100 to 5000 nM
IC50 (MS751 cells; [3]): < 100 nM

Reference: US9938258B2 (Karyopharm Therapeutics Inc., priority 2012, dated 2018)
